In patent US20240011034A1, “INHIBITION OF miR-29b-3p TO ENHANCE NEURONAL SURVIVAL IN HUNTINGTON'S DISEASE” (Washington University, priority 2022, published 2024):

How the values were obtained:
[1] = test system: reprogrammed MSNs; experiment: CYTO-ID assay for accumulated autophagic vacuoles; format: cell-based, human; details: 0.5 μM vs DMSO, PID26
Description: First, tandem monomeric mCherry-GFP-tagged LC3, previously shown to distinguish prefusion autophagic compartments from mature acidic autolysosomes based on the differential pH sensitivity of GFP versus mCherry, was used. […] CYTO-ID assay, a fluorescence-based live-cell assay for accumulated autophagic vacuoles, and immunostaining of p62/SQSTM1, a marker widely used to monitor autophagic activity due to its binding to LC3 and degradation during autophagy, were further performed. […] The difference in p62 between pre-HD-MSNs and HD-MSNs was also validated by immunoblot assay (FIG. 3I). Because caspase activation has been detected in HD, and cell death-related pathways (apoptosis and caspase) were enriched in the brown module, the levels of caspase activation between pre-HD-MSN and HD-MSNs were compared.

[2] = test system: HTT inclusion bodies; experiment: HTT inclusion bodies / mHTT aggregation by immunostaining; format: cell-based, human; details: HD-MSNs, 0.5 μM vs DMSO, PID30
Protocol: (§1) Reprogrammed cells were fixed with 4% paraformaldehyde (Electron Microscopy Sciences, #15710) for 20 min at room temperature (RT), and permeabilized with 0.2% Triton X-100 for 10 min at RT. Cells were blocked with 5% BSA and 1% goat serum in PBS and incubated with primary antibodies at 4° C. overnight, then incubated with secondary antibodies for 1 hr at RT. Cells were incubated with DAPI (Sigma, D-9542) for 5 minutes followed by washing with PBS. Images were captured using a Leica SP5X white light laser confocal system with Leica Application Suite (LAS) Advanced Fluorescence 2.7.3.9723.

[3] = test system: reprogrammed MSNs; experiment: SYTOX assay (neuronal cell death); format: cell-based, human; details: for SYTOX-positive cells (beneficial effect): 0.5 μM vs DMSO
Protocol: 0.1 μM SYTOX gene nucleic acid stain (Invitrogen, S7020) and 1 μl/mL of Hoechst 33342 (Thermo Scientific, 66249) were added into cell medium. Samples were incubated for at least 30 mins at 37° C. prior to live-cell imaging. Images were taken using Leica DMI 4000B inverted microscope with Leica Application Suite (LAS) Advanced Fluorescence.

[4] = test system: reprogrammed MSNs; experiment: Apoptosis assay in live cells (Caspase-3/7, Annexin V); format: cell-based, human; details: HD-MSNs, vs DMSO
Protocol: Reprogrammed cells grown in 96-well plates were treated with 1× Essen Bioscience IncuCyte® Caspase-3/7 Green Reagent (final concentration 5 μM) and 1× Essen Bioscience IncuCyte® Annexin V Green or Red Reagent on day 22 or 26. Image scheduling, collection, and analysis were conducted with the IncuCyte® S3 LiveCell Analysis System platform and IncuCyte S3 v2017A software. Treated plates were imaged every two hours for 7 days. At each timepoint, over 2 images were taken per well in brightfield, FITC, and TRITC channels. Images were analyzed for the number of green or red objects per well. For the apoptotic index, the number of green or red objects (i.n., fluorescence cells) divided by phase area (μm2) per well was quantified by the IncuCyte® S3 Live-Cell Analysis System.

[5] = test system: reprogrammed MSNs; experiment: tandem mCherry-GFP-LC3 reporter puncta quantification; format: cell-based, human; details: HD-MSNs, 0.5 μM vs DMSO
Protocol: FUW mCherry-GFP-LC3 used was Addgene plasm id # 110060; http://n2t.net/addgene:110060; RRID:Addgene_110060. The concentrated lentivirus of mCherry-GFP-LC3 was added to reprogrammed MSNs at PID20. For imaging of cells expressing mCherry-GFP-LC3, cells were washed once with PBS, fixed and stained by TUBB3 antibody, after verification of expression of GFP and mCherry by microscopy at PID26. Images were captured using a Leica SP5X white light laser confocal system with Leica Application Suite (LAS) Advanced Fluorescence 2.7.3.9723. For quantification of autophagosome (i.e., mCherry+, GFP+ puncta) and autolysosome (i.e., mCherry+, GFP− puncta) compartments in MSNs from multiple HD patients and control individuals, measurements were performed in cells having at least 3 puncta per cell.

[6] = test system: p62/SQSTM1; experiment: p62/SQSTM1 immunostaining and immunoblot; format: cell-based, human; details: 0.5 μM vs DMSO, PID26
Protocol: as §1
Cells were lysed in 2% SDS buffer. The concentrations of whole-cell lysates were measured using the Pierce BCA protein assay kit (Thermo Scientific, #23227). […]
First, tandem monomeric mCherry-GFP-tagged LC3, previously shown to distinguish prefusion autophagic compartments from mature acidic autolysosomes based on the differential pH sensitivity of GFP versus mCherry, was used. […] CYTO-ID assay, a fluorescence-based live-cell assay for accumulated autophagic vacuoles, and immunostaining of p62/SQSTM1, a marker widely used to monitor autophagic activity due to its binding to LC3 and degradation during autophagy, were further performed. […]

[7] = test system: α1-antitrypsin Z variant (ATZ); experiment: Immunoblot of steady-state ATZ in HTO/Z cell line model of α1-antitrypsin deficiency; format: cell-based; details: 24 hr, 0.5 and 2.5 μM vs DMSO (0.5 μM: p=0.003)
Protocol: FIG. 7A-7H show autophagy activator rescues HD-MSNs from degeneration. […] The normalized intensity (bottom) was calculated from immunoblot images for 0.5 μM versus DMSO control (Individual data plotted, n=4; *p=0.003 by t-test; Mean±s.e.m.). FIG. 7C show representative images of p62 and TUBB3-positive cells (top) and quantification of p62 intensity per cell (bottom) at PID26 from multiple healthy control old and HD-MSNs treated with DMSO or 0.5 μM G2-115. Each dot represents one individual's reprogrammed MSN. Scale bars is 20 μm FIG. 7D show representative images of CYTO-ID staining (top) and quantification of CYTO-ID green signals (bottom) at PID26 from multiple healthy control old and HD-MSNs treated with DMSO or 0.5 μM G2-115. Each dot represents one individual's reprogrammed MSN. Scale bar is 20 μm FIG. 7E show representative images (top) and quantification (bottom) of SYTOX-positive cells as a fraction of Hoechst-positive cells in HD-MSN treated with DMSO or different concentration of G2-115 (0.125, 0.25, or 0.5 μM) (n=4). Scale bar is 20 μm. FIG. 7F show quantification of SYTOX-positive cells from multiple healthy control old and HD-MSNs treated with DMSO or 0.5 μM G2-115. […] FIG. 7G show Representative images (left) and quantification (right) of caspase3/7 activation (green) and Annexin V signal (green) from three independent HD-MSN lines treated with DMSO or 0.5 μM G2-115. […]

## O=c1ccc2c(Cl)cc(Cl)cc2[nH]1 [G2-115, 5,7-dichloro-1H-quinolin-2-one]
[1]; HD-MSNs
  number of autophagic vacuoles (CYTO-ID signals): increased
[1]; old Ctrl-MSNs
  number of autophagic vacuoles (CYTO-ID signals): increased
[2]
  number of HTT inclusion bodies: reduced
[3]; HD-MSN, 0.125, 0.25 or 0.5 μM vs DMSO, treated from PID14 every four days for 16 days
  HD-MSN survival (reduction of SYTOX signal): promoted HD-MSN survival in a dose-dependent manner
[3]; HD-MSNs from six independent patients
  SYTOX-positive cells (beneficial effect): consistent in HD-MSNs from six independent patients
[3]; age-matched (old) Ctrl-MSNs versus HD-MSNs
  SYTOX-positive cells (beneficial effect): specific to HD-MSNs
[4]
  Annexin V signal: reduced
  Caspase 3/7 signal: reduced
[5]
  average number of autolysosomes: increased
  average number of autophagosomes: increased
[6]; HD-MSNs
  p62/SQSTM1 signal: decreased
[6]; old Ctrl-MSNs
  p62/SQSTM1 signal: decreased
[7]
  steady-state levels of ATZ: decreased
